Laboratory results reported in patent publication US6962713B2, “Spot-on formulations for combating parasites” (Merial, priority 1919, dated 2005).
Marks after values point to notes of the source that are not given here.

Experiment: Plasma kinetics of ivermectin after spot-on application at different doses in combination with fipronil to dogs
Assay type: in vivo, dog
Conditions: for Cmax, Mean: spot-on with fipronil 10 mg.kg^−1, dogs, mean of 3; for t½, Mean: harmonic mean
Description: This study was undertaken in order to assess the linearity of the percutaneous passage of ivermectin after spot-on application of different doses of ivermectin (100, 250, 500 and 1000 μg.kg^−1) in combination with fipronil (10 mg.kg^−1) to the dog. Furthermore, the possibility of control both heartworms and gastro-intestinal nematodes was evaluated.
Twelve male Beagle dogs (allocated into 4 groups of 3 animals were applied spot-on formulations combining ivermectin (0.1%, 0.25%, 0.5% and 1%) and fipronil (10%) at a dose rate of 0.1 ml.kg^−1 (i.e. 100, 250, 500 and 1000 μg.kg^−1 of ivermectin and 10 mg.kg^−1 of fipronil).
The formulations are as follows: […]
The formulations were applied at one spot onto the skin between the shoulder blades.
Blood samples were collected at intervals up to 56 days post treatment.
The determination of ivermectin was carried out by HPLC after an automated solid/liquid extraction, using fluorescence detection, with limit of quantification of 100 pg.ml^−1. The determination of fipronil and its sulfone metabolite (RM1602) was carried out by HPLC with UV detection, with a limit of quantification of 20 ng.ml^−1 for fipronil and RM1602. Both methods were validated in terms of specificity, extraction recovery, linearity, precision and accuracy.

[1] = spot-on with fipronil, dogs, Group I 100 μg.kg^−1 ivermectin
[2] = spot-on with fipronil, dogs, Group I 100 μg.kg^−1 ivermectin, range over dogs
[3] = spot-on with fipronil, dogs, Group II 250 μg.kg^−1 ivermectin
[4] = spot-on with fipronil, dogs, Group II 250 μg.kg^−1 ivermectin, range over dogs
[5] = spot-on with fipronil, dogs, Group III 500 μg.kg^−1 ivermectin
[6] = spot-on with fipronil, dogs, Group III 500 μg.kg^−1 ivermectin, range over dogs
[7] = spot-on with fipronil, dogs, Group IV 1000 μg.kg^−1 ivermectin
[8] = spot-on with fipronil, dogs, Group IV 1000 μg.kg^−1 ivermectin, range over dogs

For ivermectin, which “difference in parameters of absorption (Cmax and AUC) between the two studies” value (Example 7 versus Example 6, 250 μg.kg^−1 ivermectin spot-on, dogs) is on record?
Its value is greater than 2 fold.

And the “plasma concentrations of ivermectin compared with Example 6” value (same formulation (0.25% ivermectin, 10% fipronil), same dose 250 μg.kg^−1, dogs)?
The value was “much lower”.

And the “Cmax, Mean” value (Group I 100 μg.kg^−1 ivermectin)?
Its value is 0.136 ng/mL.

And the “Cmax, Mean” value (Group II 250 μg.kg^−1 ivermectin)?
Its value is 0.508 ng/mL.

And the “Cmax, Mean” value (Group III 500 μg.kg^−1 ivermectin)?
The value was 1.064 ng/mL.

And the “Cmax, Mean” value (Group IV 1000 μg.kg^−1 ivermectin)?
Its value is 1.802 ng/mL.

And the “AUC (0-Clast), Mean” value [1]?
Its value is 382 pg·days/mL.

What about the “Tlast, Mean” value [1] of the same substance?
The value was 7 days.

And the “tmax, Mean” value [1]?
Its value is 7 days.

What about the “AUC (0-Clast), Range” value [2] of the same substance?
The value was “[0-775] pg.d.ml^−1”.

What about the “Cmax, Range” value [2] of the same substance?
Its value is “[0-235] pg.ml^−1”.

And the “Tlast, Range” value [2]?
Its value is “[5-9] d”.

What about the “tmax, Range” value [2] of the same substance?
Its value is “[5-9] d”.

What about the “t½, Mean” value [3] of the same substance?
The value was 9.8 (#) d.

What about the “AUC (0-Clast), Mean” value [3] of the same substance?
The value was 7808 pg·days/mL.

What about the “Tlast, Mean” value [3] of the same substance?
Its value is 28 days.

What about the “tmax, Mean” value (spot-on with fipronil, dogs, Group II 250 μg.kg^−1 ivermectin, aberant value of 21 days not taken into account) of the same substance?
Its value is 4.5* d.

And the “AUC (0-Clast), Range” value [4]?
Its value is “[4949-10019] pg.d.ml^−1”.

And the “Cmax, Range” value [4]?
The value was “[250-723] pg.ml^−1”.

What about the “tmax, Range” value [4] of the same substance?
The value was “[4-5] d”.

And the “t½, Range” value [4]?
Its value is “[6.4-35.0] d”.

What about the “t½, Mean” value [5] of the same substance?
Its value is 11.4 (#) d.

And the “AUC (0-Clast), Mean” value [5]?
The value was 17200 pg·days/mL.

And the “Tlast, Mean” value [5]?
Its value is 37 days.

What about the “tmax, Mean” value [5] of the same substance?
Its value is 5.7 days.

And the “AUC (0-Clast), Range” value [6]?
Its value is “[9088-23274] pg.d.ml^−1”.

What about the “Cmax, Range” value [6] of the same substance?
Its value is “[410-572] pg.ml^−1”.

What about the “tmax, Range” value [6] of the same substance?
The value was “[3-7] d”.

What about the “t½, Range” value [6] of the same substance?
The value was “[9.0-16.5] d”.

And the “t½, Mean” value [7]?
Its value is 10.2 (#) d.

What about the “AUC (0-Clast), Mean” value [7] of the same substance?
The value was 29711 pg·days/mL.

And the “Tlast, Mean” value [7]?
The value was 40 days.

What about the “tmax, Mean” value [7] of the same substance?
The value was 3.3 days.

What about the “AUC (0-Clast), Range” value [8] of the same substance?
Its value is “[16759-39734] pg.d.ml^−1”.

What about the “Cmax, Range” value [8] of the same substance?
Its value is “[1669-1966] pg.ml^−1”.

What about the “tmax, Range” value [8] of the same substance?
Its value is “[2-5] d”.

And the “t½, Range” value [8]?
Its value is “[7.6-12.2] d”.

What about the “mean AUC(0-Clast)” value (spot-on with fipronil, dogs, dose of 250 μg.kg^−1) of the same substance?
Its value is 7808 pg·days/mL.
